# According to PubChem BioAssay (NCI):
#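 The compound was tested at five concentrations on cells cultured in 96-well plates, with a 48-hour exposure period. TGI is the concentration that stops growth completely.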
# Columns and labels:
# Assay in all cases: DTP human tumour cell line panel, 48 h
# ACHN renal = system: ACHN renal
# EKVX NSCLC = system: EKVX NSCLC
# LOX IMVI melanoma = system: LOX IMVI melanoma
# UO-31 renal = system: UO-31 renal
# HCT-116 colon = system: HCT-116 colon
# CAKI-1 renal = system: CAKI-1 renal
# HOP-62 NSCLC = system: HOP-62 NSCLC
# SK-MEL-28 melanoma = system: SK-MEL-28 melanoma
# UACC-62 melanoma = system: UACC-62 melanoma
# RXF 393 renal = system: RXF 393 renal
# A549 NSCLC = system: A549 NSCLC
# M14 melanoma = system: M14 melanoma
# MDA-N = system: MDA-N
# SF-539 CNS = system: SF-539 CNS
# NCI-H23 lung = system: NCI-H23 lung
# OVCAR-4 ovarian = system: OVCAR-4 ovarian
# SW-620 colon = system: SW-620 colon
# HCC-2998 colon = system: HCC-2998 colon
# HS 578T breast = system: HS 578T breast
# SNB-75 CNS = system: SNB-75 CNS
# BT-549 breast = system: BT-549 breast
# SK-MEL-2 melanoma = system: SK-MEL-2 melanoma
# KM12 colon = system: KM12 colon
# MOLT-4 leukemia = system: MOLT-4 leukemia
# NCI-H522 lung = system: NCI-H522 lung
# CCRF-CEM leukemia = system: CCRF-CEM leukemia
# 786-0 renal = system: 786-0 renal
# MDA-MB-231 breast = system: MDA-MB-231 breast
# TK-10 renal = system: TK-10 renal
# COLO 205 colon = system: COLO 205 colon
# K-562 leukemia = system: K-562 leukemia
# MCF7 breast = system: MCF7 breast
# SK-MEL-5 melanoma = system: SK-MEL-5 melanoma
# A498 renal = system: A498 renal
# MDA-MB-435 = system: MDA-MB-435
# HT29 colon = system: HT29 colon
# IGROV1 ovarian = system: IGROV1 ovarian
# NCI-H460 lung = system: NCI-H460 lung
# SK-OV-3 ovarian = system: SK-OV-3 ovarian
# HL-60(TB) leukemia = system: HL-60(TB) leukemia
# NCI-H226 lung = system: NCI-H226 lung
# UACC-257 melanoma = system: UACC-257 melanoma
# MALME-3M melanoma = system: MALME-3M melanoma
# U251 CNS = system: U251 CNS
# SN12C renal = system: SN12C renal
# SF-268 CNS = system: SF-268 CNS
# HOP-92 NSCLC = system: HOP-92 NSCLC
# DU-145 prostate = system: DU-145 prostate
# SF-295 CNS = system: SF-295 CNS
# SR leukemia = system: SR leukemia
# PC-3 prostate = system: PC-3 prostate
# OVCAR-3 ovarian = system: OVCAR-3 ovarian
# T-47D breast = system: T-47D breast
# RPMI-8226 leukemia = system: RPMI-8226 leukemia
# OVCAR-5 ovarian = system: OVCAR-5 ovarian
# NCI/ADR-RES ovarian = system: NCI/ADR-RES ovarian
# HCT-15 colon = system: HCT-15 colon
# SNB-19 CNS = system: SNB-19 CNS
# OVCAR-8 ovarian = system: OVCAR-8 ovarian
smiles,measurement,setting,value
CC(CC[C@@]1(O)OC2C[C@H]3[C@@H]4CC[C@H]5CC(OC6OC(CO)C(OC7OC(CO)C(O)C(OC8OCC(O)C(O)C8O)C7OC7OC(CO)C(O)C(O)C7O)C(O)C6O)[C@H](O)CC5(C)[C@H]4CCC3(C)C2[C@@H]1C)COC1OC(CO)C(O)C(O)C1O (stereo partly specified),TGI,ACHN renal,> 50 µM
same,TGI,EKVX NSCLC,8.9 µM
same,TGI,LOX IMVI melanoma,48.8 µM
same,TGI,UO-31 renal,21.3 µM
same,TGI,HCT-116 colon,47.3 µM
same,TGI,CAKI-1 renal,43.8 µM
same,TGI,HOP-62 NSCLC,17.9 µM
same,TGI,SK-MEL-28 melanoma,> 50 µM
same,TGI,UACC-62 melanoma,45.6 µM
same,TGI,RXF 393 renal,17.2 µM
same,TGI,A549 NSCLC,11.1 µM
same,TGI,M14 melanoma,> 50 µM
same,TGI,MDA-N,> 50 µM
same,TGI,SF-539 CNS,10.7 µM
same,TGI,NCI-H23 lung,15.9 µM
same,TGI,OVCAR-4 ovarian,36.9 µM
same,TGI,SW-620 colon,> 50 µM
same,TGI,HCC-2998 colon,34.2 µM
same,TGI,HS 578T breast,> 50 µM
same,TGI,SNB-75 CNS,9.19 µM
same,TGI,BT-549 breast,6.64 µM
same,TGI,SK-MEL-2 melanoma,31.6 µM
same,TGI,KM12 colon,> 50 µM
same,TGI,MOLT-4 leukemia,> 50 µM
same,TGI,NCI-H522 lung,22.3 µM
same,TGI,CCRF-CEM leukemia,> 50 µM
same,TGI,786-0 renal,21.8 µM
same,TGI,MDA-MB-231 breast,> 50 µM
same,TGI,TK-10 renal,16.6 µM
same,TGI,COLO 205 colon,31 µM
same,TGI,K-562 leukemia,> 50 µM
same,TGI,MCF7 breast,> 50 µM
same,TGI,SK-MEL-5 melanoma,17.7 µM
same,TGI,A498 renal,> 50 µM
same,TGI,MDA-MB-435,> 50 µM
same,TGI,HT29 colon,33.4 µM
same,TGI,IGROV1 ovarian,> 50 µM
same,TGI,NCI-H460 lung,10.2 µM
same,TGI,SK-OV-3 ovarian,43.3 µM
same,TGI,HL-60(TB) leukemia,29.1 µM
same,TGI,NCI-H226 lung,28.8 µM
same,TGI,UACC-257 melanoma,48.2 µM
same,TGI,MALME-3M melanoma,> 50 µM
same,TGI,U251 CNS,> 50 µM
same,TGI,SN12C renal,19.6 µM
same,TGI,SF-268 CNS,9.32 µM
same,TGI,HOP-92 NSCLC,> 50 µM
same,TGI,DU-145 prostate,10.3 µM
same,TGI,SF-295 CNS,45.2 µM
same,TGI,SR leukemia,> 50 µM
same,TGI,PC-3 prostate,> 50 µM
same,TGI,OVCAR-3 ovarian,23.1 µM
same,TGI,T-47D breast,34.6 µM
same,TGI,RPMI-8226 leukemia,> 50 µM
same,TGI,OVCAR-5 ovarian,27.8 µM
same,TGI,NCI/ADR-RES ovarian,31.1 µM
same,TGI,HCT-15 colon,> 50 µM
same,TGI,SNB-19 CNS,> 50 µM
same,TGI,OVCAR-8 ovarian,> 50 µM
CC(C)=C[C@@H]1O[C@H](O)[C@@H]([C@H]2CC[C@@]3(C)[C@@H]4CC[C@H]5C(C)(C)C(=O)CC[C@@]56C[C@@]46CC[C@]23C)[C@@H]1O,TGI,ACHN renal,32 µM
same,TGI,EKVX NSCLC,33 µM
same,TGI,UO-31 renal,28.6 µM
same,TGI,HCT-116 colon,28.5 µM
same,TGI,CAKI-1 renal,31 µM
same,TGI,HOP-62 NSCLC,62.2 µM
same,TGI,SK-MEL-28 melanoma,42.5 µM
same,TGI,UACC-62 melanoma,35.5 µM
same,TGI,RXF 393 renal,27.8 µM
same,TGI,A549 NSCLC,28.7 µM
same,TGI,M14 melanoma,57.3 µM
same,TGI,MDA-N,31.3 µM
same,TGI,SF-539 CNS,28 µM
same,TGI,NCI-H23 lung,32.9 µM
same,TGI,OVCAR-4 ovarian,35 µM
same,TGI,SW-620 colon,29.7 µM
same,TGI,HCC-2998 colon,33.3 µM
same,TGI,HS 578T breast,48.4 µM
same,TGI,SNB-75 CNS,32.5 µM
same,TGI,BT-549 breast,39.8 µM
same,TGI,SK-MEL-2 melanoma,42.2 µM
same,TGI,KM12 colon,34.9 µM
same,TGI,MOLT-4 leukemia,32.4 µM
same,TGI,NCI-H522 lung,30.3 µM
same,TGI,CCRF-CEM leukemia,24.1 µM
same,TGI,786-0 renal,27.6 µM
same,TGI,MDA-MB-231 breast,37.1 µM
same,TGI,TK-10 renal,30.1 µM
same,TGI,COLO 205 colon,43.3 µM
same,TGI,K-562 leukemia,38.4 µM
same,TGI,MCF7 breast,25 µM
same,TGI,SK-MEL-5 melanoma,41.8 µM
same,TGI,A498 renal,32.8 µM
same,TGI,MDA-MB-435,41.7 µM
same,TGI,HT29 colon,24.1 µM
same,TGI,IGROV1 ovarian,35.4 µM
same,TGI,NCI-H460 lung,35.9 µM
same,TGI,SK-OV-3 ovarian,34.6 µM
same,TGI,HL-60(TB) leukemia,30.2 µM
same,TGI,NCI-H226 lung,24.6 µM
same,TGI,UACC-257 melanoma,31.6 µM
same,TGI,MALME-3M melanoma,37.7 µM
same,TGI,U251 CNS,34.8 µM
same,TGI,SN12C renal,38.2 µM
same,TGI,SF-268 CNS,39.4 µM
same,TGI,HOP-92 NSCLC,32 µM
same,TGI,DU-145 prostate,29.6 µM
same,TGI,SF-295 CNS,31.9 µM
same,TGI,SR leukemia,25.8 µM
same,TGI,PC-3 prostate,29.3 µM
same,TGI,OVCAR-3 ovarian,27.3 µM
same,TGI,T-47D breast,35.5 µM
same,TGI,RPMI-8226 leukemia,12.7 µM
same,TGI,OVCAR-5 ovarian,57.8 µM
same,TGI,NCI/ADR-RES ovarian,35.6 µM
same,TGI,HCT-15 colon,36.1 µM
same,TGI,SNB-19 CNS,39.1 µM
same,TGI,OVCAR-8 ovarian,30.4 µM
CC[C@@H](O)C[C@H]1CCC[C@@]2(C[C@@H]3OC(=O)/C=C/[C@@](C)(O)[C@@H](O)[C@H](C)[C@@H](O)[C@H](OC4CCC(N(C)C)C(C)O4)[C@@H](O)[C@](C)(O)CCCCC/C=C/[C@@H]4CC(C)(C)O[C@@]4(O)C[C@H](O2)[C@H]3C)O1 (stereo partly specified),TGI,ACHN renal,17.6 µM
same,TGI,EKVX NSCLC,19.1 µM
same,TGI,LOX IMVI melanoma,9.46 µM
same,TGI,UO-31 renal,18.1 µM
same,TGI,HCT-116 colon,26.2 µM
same,TGI,CAKI-1 renal,20.2 µM
same,TGI,HOP-62 NSCLC,26.2 µM
same,TGI,SK-MEL-28 melanoma,36.8 µM
same,TGI,UACC-62 melanoma,21.8 µM
same,TGI,RXF 393 renal,34.6 µM
same,TGI,A549 NSCLC,20.5 µM
same,TGI,M14 melanoma,7.48 µM
same,TGI,MDA-N,20.8 µM
same,TGI,SF-539 CNS,23.3 µM
same,TGI,NCI-H23 lung,18.2 µM
same,TGI,OVCAR-4 ovarian,25.7 µM
same,TGI,SW-620 colon,53.6 µM
same,TGI,HCC-2998 colon,17.5 µM
same,TGI,HS 578T breast,33.5 µM
same,TGI,SNB-75 CNS,21.5 µM
same,TGI,BT-549 breast,29.2 µM
same,TGI,SK-MEL-2 melanoma,22.7 µM
same,TGI,KM12 colon,24.4 µM
same,TGI,MOLT-4 leukemia,23.3 µM
same,TGI,NCI-H522 lung,12.3 µM
same,TGI,CCRF-CEM leukemia,> 100 µM
same,TGI,786-0 renal,34.1 µM
same,TGI,MDA-MB-231 breast,34.1 µM
same,TGI,TK-10 renal,21.6 µM
same,TGI,COLO 205 colon,14.5 µM
same,TGI,K-562 leukemia,21.5 µM
same,TGI,MCF7 breast,15.6 µM
same,TGI,SK-MEL-5 melanoma,2.04 µM
same,TGI,A498 renal,57.4 µM
same,TGI,MDA-MB-435,22.2 µM
same,TGI,HT29 colon,> 39.7 µM
same,TGI,IGROV1 ovarian,21.8 µM
same,TGI,NCI-H460 lung,46.8 µM
same,TGI,SK-OV-3 ovarian,29.1 µM
same,TGI,HL-60(TB) leukemia,> 39.8 µM
same,TGI,NCI-H226 lung,29.6 µM
same,TGI,UACC-257 melanoma,4.82 µM
same,TGI,MALME-3M melanoma,15.5 µM
same,TGI,U251 CNS,36.8 µM
same,TGI,SN12C renal,37.1 µM
same,TGI,SF-268 CNS,35.2 µM
same,TGI,HOP-92 NSCLC,37.2 µM
same,TGI,DU-145 prostate,24.1 µM
same,TGI,SF-295 CNS,21.6 µM
same,TGI,SR leukemia,9.42 µM
same,TGI,PC-3 prostate,15.7 µM
same,TGI,OVCAR-3 ovarian,25.5 µM
same,TGI,T-47D breast,26.3 µM
same,TGI,RPMI-8226 leukemia,25 µM
same,TGI,OVCAR-5 ovarian,28.1 µM
same,TGI,NCI/ADR-RES ovarian,24 µM
same,TGI,HCT-15 colon,29.2 µM
same,TGI,SNB-19 CNS,20.6 µM
same,TGI,OVCAR-8 ovarian,20.3 µM
